“And” between values parts separate entries of the source, which are not always exact repeats. Equal values may be shown once. Read-outs that look alike come from different tables or passages of the source.
Assays:
[1] = target: T1, Acetylcholinesterase (AChE, EC 3.1.1.7) (Electrophorus electricus, UniProt O42275); assay: Acetylcholinesterase inhibition, modified Ellman colorimetric method; assay type: biochemical; details: for Hillslope: AChE inhibition dose–response curve; for LOAEL / IC50: Ellman assay; for IC50: 0.03–2 mM, Hill fit; for maximum inhibition of AChE among the tested concentrations: 0.03 to 2 mM
T1 construct: purchased Sigma-Aldrich
Method: Acetylcholinesterase (AChE, EC 3.1.1.7) enzymatic activity was assessed using a modified version of Ellman’s colorimetric method, as described by Falé et al.. In this assay, a mixture of 325 μL of 50 mM Tris-HCl buffer (pH 8), 100 μL of a cathinone solution, and 25 μL of AChE (0.1 U/mL in 50 mM Tris–HCl buffer pH 8) were incubated. After a 15 min incubation period, 75 μL of AChI (0.33 mg/mL) was added to 475 μL of DTNB (dithiobis (2-nitrobenzoic acid)) (1.2 mg/mL in Tris–HCl buffer (pH 8) containing 0.1 M NaCl and 0.02 M MgCl2). A control reaction, representing 100% activity, was performed using the same volume of water instead of the cathinone solution. The initial velocity of the enzymatic reaction was measured at 405 nm for 5 min, with all assays carried out in duplicate. The percentage of AChE activity inhibition for different concentrations of cathinones [0.03–2 mM] was determined as the ratio of the initial velocity in the cathinone presence to the initial velocity of the control reaction. Experimental results were fitted to Hill’s sigmoidal dose–response non-linear regression model to determine IC50 values (cathinone concentration showing 50% inhibition), along with their confidence interval at the 95% confidence level ([CI]). The Hill slope coefficients that provide the steepest value of the slope of the dose–response curve and the minimum observable adverse effect concentration (LOAEL) for all cathinones were also determined.

SH-SY5Y cells = assay: Mitochondrial membrane potential (JC-1 probe); assay type: cell-based, human; details: 6 h treatment at LC50, JC-1
Method: Mitochondrial membrane potential (MMP) was estimated by using the JC-1 fluorescent probe (Molecular Probes, Eugene, OR, USA) as described in Silva et al., 2022 [65]. The formation of JC-1 aggregates (excitation λ: 490 nm; emission λ: 590 nm) and monomers (excitation λ: 490 nm; emission λ: 530 nm) was measured for 30 min using a plate reader (Bio-Tek Synergy plate reader, Bedfordshire, UK). Changes in MMP were calculated as the ratio between JC-1 monomers and aggregates and expressed as a percentage of the control. An FCCP (2.5 µM) and oligomycin A (1 mg/mL) conjugate solution was used as the positive control. All data were obtained from at least three independent experiments (n = 3) and were presented as mean ± standard error of the mean (SEM).

[2] = test system: differentiated SH-SY5Y cells; assay: MTT cytotoxicity assay on differentiated SH-SY5Y cells; assay type: cell-based, human; details: lowest observed adverse effect level, differentiated SH-SY5Y, 24 h, MTT
Method: (§1) The SH–SY5Y cell line (DSMZ code: ACC 209) was supplied by the German Collection of Microorganisms and the Cell Culture GmbH (DSMZ) biobank and was cultured according to the supplier’s information. Cells were grown in DMEM:F12 (Dulbecco’s Modified Eagle’s Medium/F12), supplemented with 10% fetal bovine serum (FBS) and 1% antibiotic–antimycotic in a humidified atmosphere with 5% CO2 at 37 °C. Subculture was performed according to biobank instructions when the cultures reached 80–85% of confluence.
(§2) SH-SY5Y cells were trypsinized (trypsin/EDTA; 0.25%) and the cell suspension was seeded in 96-well plates at a density of 2 × 10^4 cells/well and incubated until reaching 80-85% confluence. Cells were differentiated to obtain a dopaminergic neuronal phenotype according to Ferreira et al. with slight modifications (Figure 10). To ensure reproducibility and optimal neuronal differentiation, cells were used between passages (15–25). Briefly, cells were seeded in complete DMEM:F12 medium containing 10 µM retinoic acid (RA) and 2.5% fetal bovine serum (FBS) and maintained for 4 days, with the medium changed on day 2. After this time, the medium was replaced by DMEM:F12 supplemented with 10 µM RA, 80 nM 12-O-tetradecanoylphorbol-13-acetate (TPA), and 2.5% FBS, and the cells were maintained for an additional 4 days (with the medium changed at day 6). The cytotoxicity assay was performed on day 8.
(§3) The SH-SY5Y cells’ viability was evaluated after exposure for 24 h to […]. The 3-(4,5-dimethylthiazol-2-yl) − 2,5-diphenyltetrazolium bromide (MTT) colorimetric assay was performed following the methodology described by Joana Silva et al.. The experimental dose–response results were fitted to the Hill’s sigmoidal non-linear regression model. For each cathinone, the LC50 values (cathinone concentration showing 50% lethality) and their confidence interval at the 95% confidence level ([CI]) were determined. The Hill slope, also known as the Hill coefficient, which describes the steepness of a dose–response curve, and the minimum observable adverse effect concentration (LOAEL) were also determined for all cathinones.

[3] = as above; assay type: cell-based, human; details: human, 0.05–5 mM; for CC50 at 24 h: differentiated SH-SY5Y, MTT reduction assay, Hill fit, read-out: LC50
Method: as §1, §2, §3

T1 sequence (O42275 24-633): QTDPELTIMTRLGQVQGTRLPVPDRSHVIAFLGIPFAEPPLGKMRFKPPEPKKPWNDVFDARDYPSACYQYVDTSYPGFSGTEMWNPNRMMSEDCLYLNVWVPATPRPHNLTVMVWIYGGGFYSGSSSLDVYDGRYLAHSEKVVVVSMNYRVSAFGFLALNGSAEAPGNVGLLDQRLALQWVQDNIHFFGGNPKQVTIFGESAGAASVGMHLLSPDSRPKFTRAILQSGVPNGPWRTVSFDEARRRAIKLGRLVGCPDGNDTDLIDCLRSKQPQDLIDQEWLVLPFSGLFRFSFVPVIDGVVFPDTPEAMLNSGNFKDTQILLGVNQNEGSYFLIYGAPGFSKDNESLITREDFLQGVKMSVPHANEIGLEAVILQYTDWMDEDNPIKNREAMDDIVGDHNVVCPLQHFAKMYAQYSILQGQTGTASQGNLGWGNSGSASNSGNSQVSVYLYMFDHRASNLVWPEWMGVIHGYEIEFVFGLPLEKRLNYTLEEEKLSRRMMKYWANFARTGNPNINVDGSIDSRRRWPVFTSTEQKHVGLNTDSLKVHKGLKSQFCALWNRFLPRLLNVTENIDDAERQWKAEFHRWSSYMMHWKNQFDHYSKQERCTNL

Structure (SMILES)	Hillslope [1]	LOAEL ([1]; AChE inhibition)	IC50 ([1]; IC50, AChE inhibition)	MMP depolarization (SH-SY5Y cells)	LOAEL [2]	CC50 at 24 h [3]	maximum inhibition of AChE among the tested concentrations [1]	IC50 ([1]; AChE inhibition, read-out: IC50)	Emax at 24 h ([3]; MTT, read-out: maximum response (cytotoxicity))	inhibition at 2000 µM ([1]; highest tested concentration of 2 mM)
CCCCNC(C)C(=O)c1ccc(Cl)cc1 (racemic) [4-CBC (8), (R,S)-2-(butylamino)-1-(4-chlorophenyl)propan-1-one]	5.1	0.100 mM	1300 µM	more pronounced MMP depolarization than the other cathinones	0.5 mM	0.6 mM	–	–	–	–
CC(C(=O)c1cccc(Cl)c1)N(C)C (racemic) [3-CDC (13), (R,S)-1-(3-chlorophenyl)-2-(dimethylamino)propan-1-one]	1.2	0.250 mM	900 µM	–	1 mM and 1.0 mM	1.8 mM	–	–	–	–
CC(C)NC(C)C(=O)c1ccc(Cl)cc1 (racemic) [4-CIC (18), (R,S)-1-(4-chlorophenyl)-2-(isopropylamino)propan-1-one]	2.0	0.375 mM	1100 µM	–	1 mM and 1.0 mM	1.4 mM	–	–	–	–
CC(C)NC(C)C(=O)c1cccc(Cl)c1 (racemic) [3-CIC (17), (R,S)-1-(3-chlorophenyl)-2-(isopropylamino)propan-1-one]	0.8	0.063 mM	200 µM	–	1 mM and 1.0 mM	1.6 mM	–	–	–	–
CC(C(=O)c1ccccc1Cl)N1CCCC1 (racemic) [2-Cl-PPP (9), (R,S)-1-(2-chlorophenyl)-2-(pyrrolidine-1-yl)propan-1-one]	1.5	0.125 mM	300 µM	–	0.5 mM	1.6 mM	81%	–	–	–
CCNC(C)C(=O)c1ccccc1Cl (racemic) [2-CEC (4), (R,S)-1-(2-chlorophenyl)-2-(ethylamino)propan-1-one]	4.3	0.500 mM	600 µM	–	0.5 mM	1.6 mM	85%	–	–	–
CCN(CC)C(C)C(=O)c1ccc(Cl)cc1 (racemic) [4-Cl-DEC (16), (R,S)-1-(4-chlorophenyl)-2-(diethylamino)propan-1-one]	0.8	0.063 mM	100 µM	–	1 mM and 1.0 mM	1 mM	–	–	–	–
CC(NC(C)(C)C)C(=O)c1cccc(Cl)c1 (racemic) [3-Cl-TBC (19), (R,S)-2-(tert-butylamino)-1-(3-chlorophenyl)propan-1-one]	0.9	0.250 mM	–	–	0.5 mM	1 mM	–	1000 µM	–	–
CNC(C)C(=O)c1cccc(Cl)c1 (racemic) [3-CMC (2), (R,S)-1-(3-chlorophenyl)-2-(methylamino)propan-1-one]	3.7	0.500 mM	800 µM	–	1 mM and 1.0 mM	2.3 mM	–	–	–	–
CC(C(=O)c1ccccc1Cl)N(C)C (racemic) [2-CDC (12), (R,S)-1-(2-chlorophenyl)-2-(dimethylamino)propan-1-one]	2.5	0.250 mM	700 µM	–	1 mM and 1.0 mM	1.3 mM	–	–	–	–
CNC(C)C(=O)c1ccccc1Cl (racemic) [2-CMC (1), (R,S)-1-(2-chlorophenyl)-2-(methylamino)propan-1-one]	2.5	0.250 mM	700 µM	–	1 mM and 1.0 mM	1.7 mM	–	–	–	–
CCNC(C)C(=O)c1ccc(Cl)cc1 (racemic) [4-CEC (6), (R,S)-1-(4-chlorophenyl)-2-(ethylamino)propan-1-one]	1.2	0.250 mM	1200 µM	–	0.1 mM	1.3 mM	–	–	–	–
CC(C(=O)c1cccc(Cl)c1)N1CCCC1 (racemic) [3-Cl-PPP (10), (R,S)-1-(3-chlorophenyl)-2-(pyrrolidine-1-yl)propan-1-one]	1.8	0.125 mM	400 µM	–	0.1 mM	2.5 mM	–	–	–	–
CNC(C)C(=O)c1ccc(C)cc1 (centres unmarked) [Mephedrone (M), Mephedrone, reference compound]	8.6	0.750 mM	800 µM	–	0.5 mM	2.1 mM	–	–	73%	–
CNC(C)C(=O)c1ccc(Cl)cc1 (racemic) [4-CMC (3), (R,S)-1-(4-chlorophenyl)-2-(methylamino)propan-1-one]	1.5	0.250 mM	~2000 µM	–	0.1 mM	1.3 mM	–	–	–	47%
CC(C(=O)c1ccc(Cl)cc1)N(C)C (racemic) [4-CDC (14), (R,S)-1-(4-chlorophenyl)-2-(dimethylamino)propan-1-one]	2.9	0.500 mM and 0.50 mM	700 µM	–	1 mM and 1.0 mM	1.5 mM	–	–	–	–
CCCCNC(C)C(=O)c1cccc(Cl)c1 (racemic) [3-CBC (7), (R,S)-2-(butylamino)-1-(3-chlorophenyl)propan-1-one]	1.4	0.125 mM	400 µM	more pronounced MMP depolarization than the other cathinones	0.1 mM	0.7 mM	–	–	–	–
CCNC(C)C(=O)c1cccc(Cl)c1 (racemic) [3-CEC (5), (R,S)-1-(3-chlorophenyl)-2-(ethylamino)propan-1-one]	1.3	0.250 mM	800 µM	–	0.5 mM	1.3 mM	–	–	–	–
CC(C(=O)c1ccc(Cl)cc1)N1CCCC1 (racemic) [4-Cl-PPP (11), (R,S)-1-(4-chlorophenyl)-2-(pyrrolidine-1-yl)propan-1-one]	1.1	0.250 mM	500 µM	–	0.5 mM	1.8 mM	–	–	–	–
